Read-outs that look alike come from different tables or passages of the source.
Experiments:
MAP4K4 (h) = MAP4K4 (h) (Homo sapiens (Human), UniProt O95819); test: MAP4K4 Human STE Kinase Enzymatic Radiometric Assay; format: biochemical; settings: ATP 200 μM; 40 min at room temperature;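 note: kinase activity remaining relative to the DMSO control, IC50 derived from sigmoidal variable-slope curve fits, no preincubation of compound with enzyme before ATP start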
Protocol: (§1) The reaction is initiated by the addition of the Mg/ATP mix. After incubation for 40 minutes at room temperature, the reaction is stopped by the addition of phosphoric acid to a concentration of 0.5%.
INCUBATION: 40 min at Room temperature
COMPOUND DILUTION SCHEME: All compounds supplied were prepared to a working stock of 50× final assay concentration in 100% DMSO. Where appropriate, more concentrated stocks were diluted manually to 50× using 100% DMSO. Compounds supplied as powders were reconstituted to a 10 mM stock in 100% DMSO before further dilution to 50×.
ASSAY PROCEDURE: The required volume of the 50× stock of test compound was added to the assay before a reaction mix containing the enzyme and substrate was added. The reaction was initiated by the addition of ATP at the selected concentration. There was no pre-incubation of the compound with the enzyme/substrate mix prior to ATP addition.
Results are expressed as kinase activity remaining, as a percentage of the DMSO control. This is calculated using the following formula: Mean of Sample Counts−Mean of Blank Counts/Mean of Control Counts
(§2) For IC50 determinations, data are analyzed using XLFit version 5.3 (ID Business Solutions). Sigmoidal dose-response (variable slope) curves are fit based on the mean result for each test concentration using non-linear regression analysis. Where the top and/or bottom of the curve fall >10% out with 100 and 0, respectively, either or both of these limits may be constrained at 100 and 0, provided that the QC criterion on R2 is met.

TNIK(h) = TNIK(h) (Homo sapiens (Human), UniProt Q9UKE5); test: TNIK Human STE Kinase Enzymatic Radiometric Assay; format: biochemical;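 note: remaining kinase activity relative to DMSO control, compound added without preincubation, reaction started with ATP, IC50 from variable-slope sigmoidal dose-response fit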
TNIK(h), sequence (Q9UKE5 whole entry): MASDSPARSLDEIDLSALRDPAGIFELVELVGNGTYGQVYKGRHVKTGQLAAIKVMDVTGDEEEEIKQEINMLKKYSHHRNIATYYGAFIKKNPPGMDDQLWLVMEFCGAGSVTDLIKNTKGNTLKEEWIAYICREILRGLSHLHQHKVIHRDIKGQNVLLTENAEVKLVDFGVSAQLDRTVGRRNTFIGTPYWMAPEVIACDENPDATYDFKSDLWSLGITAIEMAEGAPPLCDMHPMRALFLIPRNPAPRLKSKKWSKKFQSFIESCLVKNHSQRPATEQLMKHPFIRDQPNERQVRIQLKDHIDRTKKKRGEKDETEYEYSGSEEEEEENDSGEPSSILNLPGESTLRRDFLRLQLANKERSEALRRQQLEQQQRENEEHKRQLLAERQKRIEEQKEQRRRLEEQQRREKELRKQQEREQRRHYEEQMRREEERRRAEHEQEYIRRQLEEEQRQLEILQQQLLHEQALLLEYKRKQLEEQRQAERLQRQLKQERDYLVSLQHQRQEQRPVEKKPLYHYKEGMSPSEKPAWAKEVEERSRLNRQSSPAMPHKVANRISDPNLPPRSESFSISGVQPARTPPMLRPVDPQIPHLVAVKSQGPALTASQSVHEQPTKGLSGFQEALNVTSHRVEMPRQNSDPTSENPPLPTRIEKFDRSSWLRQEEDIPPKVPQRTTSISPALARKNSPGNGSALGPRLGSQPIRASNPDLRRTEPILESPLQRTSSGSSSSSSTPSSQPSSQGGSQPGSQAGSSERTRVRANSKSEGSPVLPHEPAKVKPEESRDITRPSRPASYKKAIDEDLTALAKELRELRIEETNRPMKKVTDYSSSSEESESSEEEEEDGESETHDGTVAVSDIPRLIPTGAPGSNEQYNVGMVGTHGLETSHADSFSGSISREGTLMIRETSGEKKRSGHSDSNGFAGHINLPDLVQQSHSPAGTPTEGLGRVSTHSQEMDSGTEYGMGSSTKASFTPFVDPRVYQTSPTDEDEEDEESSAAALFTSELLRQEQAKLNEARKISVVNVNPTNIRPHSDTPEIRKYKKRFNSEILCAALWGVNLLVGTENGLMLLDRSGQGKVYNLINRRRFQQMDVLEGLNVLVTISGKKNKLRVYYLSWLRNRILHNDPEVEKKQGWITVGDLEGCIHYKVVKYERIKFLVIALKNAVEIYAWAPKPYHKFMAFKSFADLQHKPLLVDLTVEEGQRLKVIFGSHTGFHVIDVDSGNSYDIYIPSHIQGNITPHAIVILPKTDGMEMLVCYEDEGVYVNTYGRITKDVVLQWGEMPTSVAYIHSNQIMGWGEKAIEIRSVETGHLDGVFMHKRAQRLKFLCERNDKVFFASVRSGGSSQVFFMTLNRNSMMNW
Protocol: as §1
INCUBATION: 40 min at Room temperature
COMPOUND DILUTION SCHEME: All compounds supplied were prepared to a working stock of 50× final assay concentration in 100% DMSO. Where appropriate, more concentrated stocks were diluted manually to 50× using 100% DMSO. Compounds supplied as powders were reconstituted to a 10 mM stock in 100% DMSO before further dilution to 50×. ASSAY PROCEDURE: The required volume of the 50× stock of test compound was added to the assay before a reaction mix containing the enzyme and substrate was added. The reaction was initiated by the addition of ATP at the selected concentration. There was no pre-incubation of the compound with the enzyme/substrate mix prior to ATP addition. […] Results are expressed as kinase activity remaining, as a percentage of the DMSO control. This is calculated using the following formula:
as §2

[1] = Metabolic stability in human liver microsomes; format: in vitro ADME; settings: LM Clint; 1 μM test compound, 0.5 mg protein/mL microsome, 37° C., up to 60 min;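 note: NADPH-supplemented human liver microsomes sampled at 0, 5, 10, 20, 30 and 60 min, parent compound quantified by LC-MS/MS, intrinsic clearance from first-order decay, no-cofactor incubation as control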
Protocol: Test Compound an Control Working Solution Preparation: Working solution: 5 μL of compound and control stock solution (10 mM in dimethyl sulfoxide (DMSO)) were diluted with 495 µL of acetonitrile (ACN) (intermediate solution concentration: 100 μM, 99% ACN).
Preparation Procedure: The appropriate amount of NADPH powder was weighed and diluted into a 10 mM MgCl2 solution (working solution concentration: 10 unit/mL; final concentration in reaction system: 1 unit/mL).
Preparation Procedure: The appropriate concentrations of microsome working solutions were prepared in 100 mM potassium phosphate buffer.
Stop Solution Preparation: Cold (4° C.) acetonitrile (ACN) containing 200 ng/mL tolbutamide and 200 ng/mL labetalol as internal standards (IS) was used as the stop solution.
Dilute liver microsomes to 0.56 mg/mL in 100 mM phosphate buffer.
Transfer 445 μL microsome working solutions (0.56 mg/mL) into pre-warmed ‘Incubation’ plates T60 and NCF60, Then pre-incubate ‘Incubation’ plates T60 and NCF60 for 10 min at 37° C. with constant shaking. Transfer 54 μL liver microsomes to blank plate, then add 6 μL NAPDH cofactor to blank plate, and then add 180 μL quenching solution to blank plate.
2.5.4 Add 5 μL compound working solution (100 μM) into ‘incubation’ plates (T60 and NCF60) containing microsomes and mix 3 times thoroughly.
For the NCF60 plate, add 50 μL of buffer and mix 3 times thoroughly. Start timing; plate will be incubated at 37° C. for 60 min while shaking.
For the T60 plate, mix 3 times thoroughly, and immediately remove 54 μL mixture for the 0-min time point to ‘Quenching’ plate. Then add 44 μL NAPDH cofactor to incubation plate (T60). Start timing; plate will be incubated at 37° C. for 60 min while shaking.
At 5, 10, 20, 30, and 60 min, add 180 μL quenching solution to ‘Quenching’ plates, mix once, and serially transfer 60 μL sample from T60 plate per time point to ‘Quenching’ plates.
For NCF60: mix once, and transfer 60 μL sample from the NCF60 incubation to ‘Quenching’ plate containing quenching solution at the 60-min time point.
All sampling plates are shaken for 10 min, then centrifuged at 4000 rpm for 20 minutes at 4° C.
Transfer 80 μL supernatant into 240 μL HPLC water, and mix by plate shaker for 10 min.
Each bioanalysis plate was sealed and shaken for 10 minutes prior to LC-MS/MS analysis.
The equation of first order kinetics was used to calculate T½ and Intrinsic clearance (CLint mic) in (L/min/mg).

[2] = system: Collagen I (COL1A1) in LX-2 cells; test: Collagen and Alpha-SMA in LX-2 (Western blot after TGF-β stimulation); format: cell-based; settings: Homo sapiens, 4 ng/ml TGF-β for 48 hours, Collagen I normalized to GAPDH;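 note: cells serum-starved in 0.4% FBS before treatment, lysates analysed by Western blot, DMSO-only wells as blank and TGF-β alone as maximal induction control, three independent experiments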
Protocol: 3 ml of 0.25% Trypsin-EDTA solution was then added and cells were incubated at 37° C. for 5 min for each T150-flask. 7 ml of culture medium was added to stop trypsinization. The cells were centrifuged at 300×g for 5 min. Supernatant medium was discarded and cells were re-suspended with fresh culture medium. The cells were counted with Cell viability analyzer. 5.0E+05 cells/well were seeded into 6-well plate containing 2.0 mL of culture medium. The cells were cultured overnight at 37° C. The next day, the complete medium was replaced with medium with 0.4% FBS for starvation. […] In parallel, medium containing only DMSO and TGF-β was used as blank control and positive control, respectively. TGF-β induction was used as maximum induction positive control. The culture medium was discarded at the end of induction. Cells were washed once using ice-cold DPBS. RIPA buffer was added to lyse the cells for 20 min. The cells were then scraped off the culture plate, collected in a tube and centrifuged. The supernatant was stored at −80° C. The total amount of protein in the lysate was determined using BCA Protein Assay kit. The cell treatment of fibrosis assay was performed in three independent experiments for each compound.
All the lysate samples were adjusted to the same protein concentration with RIPA buffer after BCA assay. […] The denatured samples were used for electrophoresis. Western blot was performed according to the standard protocols. The same volume of protein was loaded onto 4-12% Bis-Tris gel. Duplicate lysates of samples were loaded onto two gels. The gels were run for 0.5 h at 80 V and 120 V for another 1 h. When the electrophoresis was completed, the gels containing target protein Collagen I (COL1A1) were transferred onto NC membrane using Trans-Blot Electrophoretic Transfer Cell for 90 min at 100 V. The iBlot™ 2 Gel Transfer Device was used to transfer α-SMA and GAPDH at 20 V for 7 min. All the membranes were blocked in TBST buffer with 5% nonfat dry milk in at RT for 1 h and then incubated with primary antibody anti-COL1A1 and anti-α-SMA in TBST buffer containing 5% BSA at 4° C. overnight. For GAPDH detection, the membrane with α-SMA immunoblots were stripped with Restore™ Western Blot Stripping Buffer after detection. And the membranes were re-blocked and then re-probed with primary antibody anti-GAPDH antibody at room temperature (RT) for 2 h. After incubation with primary antibodies, membranes were washed with TBST, then incubated with the secondary antibody at RT for 1 h. Blots were visualized using the instrument Image Quant LAS-4000. The chemiluminescent signals derived from ECL Western blotting reagents were captured. The bands integrated intensity from 16-bit blot images was used for quantitation with the software (1D component of ImageQuant TL). The quantification raw data of the two duplicated gels was obtained from ImageQuant TL. Collagen I and α-SMA proteins expression level was normalized to GAPDH for each gel. The average normalization data of the two duplicated gels was calculated and applied to calculate IC50 using an equation for a sigmoidal dose response (variable slope) of GraphPad™ Prism software. The equation is Y=Bottom+(Top-Bottom)/(1+10^((Log IC50−X)*Hillslope). Note: X is the logarithm of compound concentration, Y is the average normalization data

[3] = ATP 70 μM, 40 min at room temperature, read-out: TNIK (IC50)

MAP4K4 (h), sequence (O95819 whole entry): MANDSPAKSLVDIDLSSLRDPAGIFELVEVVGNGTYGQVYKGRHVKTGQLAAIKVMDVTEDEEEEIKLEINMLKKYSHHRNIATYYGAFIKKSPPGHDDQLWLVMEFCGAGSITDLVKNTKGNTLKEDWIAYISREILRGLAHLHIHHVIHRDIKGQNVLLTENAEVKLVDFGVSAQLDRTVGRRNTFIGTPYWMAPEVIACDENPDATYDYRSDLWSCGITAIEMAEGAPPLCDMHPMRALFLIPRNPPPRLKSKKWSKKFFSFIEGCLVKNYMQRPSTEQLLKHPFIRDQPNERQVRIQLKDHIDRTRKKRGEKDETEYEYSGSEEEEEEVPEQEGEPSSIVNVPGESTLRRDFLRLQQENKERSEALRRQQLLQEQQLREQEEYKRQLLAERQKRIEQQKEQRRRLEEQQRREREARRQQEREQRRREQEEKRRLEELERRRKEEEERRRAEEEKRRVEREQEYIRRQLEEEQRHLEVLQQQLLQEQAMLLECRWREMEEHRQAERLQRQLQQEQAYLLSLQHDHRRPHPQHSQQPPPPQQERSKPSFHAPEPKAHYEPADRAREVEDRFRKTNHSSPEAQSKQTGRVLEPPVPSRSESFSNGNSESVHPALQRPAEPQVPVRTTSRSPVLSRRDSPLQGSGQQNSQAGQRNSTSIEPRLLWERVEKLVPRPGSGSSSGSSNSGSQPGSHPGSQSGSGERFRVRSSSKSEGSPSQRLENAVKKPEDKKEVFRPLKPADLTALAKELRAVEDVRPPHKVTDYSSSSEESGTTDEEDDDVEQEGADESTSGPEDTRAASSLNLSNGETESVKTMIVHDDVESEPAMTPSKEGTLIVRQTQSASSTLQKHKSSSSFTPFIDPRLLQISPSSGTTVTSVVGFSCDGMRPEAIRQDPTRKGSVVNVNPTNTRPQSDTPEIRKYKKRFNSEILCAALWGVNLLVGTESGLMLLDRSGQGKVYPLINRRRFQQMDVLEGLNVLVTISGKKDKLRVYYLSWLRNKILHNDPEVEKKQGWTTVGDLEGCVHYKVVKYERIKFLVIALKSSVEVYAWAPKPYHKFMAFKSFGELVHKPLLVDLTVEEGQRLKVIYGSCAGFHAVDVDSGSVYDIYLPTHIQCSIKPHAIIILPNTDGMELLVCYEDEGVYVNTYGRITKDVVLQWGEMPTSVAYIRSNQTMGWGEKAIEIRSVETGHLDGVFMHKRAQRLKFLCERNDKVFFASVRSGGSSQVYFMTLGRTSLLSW

Compound: CC(C)n1cnc(-c2ccc(F)cc2)c1-c1nc(C(=O)Nc2ccc(CCO)cc2)c[nH]1 [Compound 111, 5′-(4-fluorophenyl)-N-(4-(2-hydroxyethyl)phenyl)-3′-isopropyl-1H,3′H-[2,4′-biimidazole]-4-carboxamide]
- IC50 (MAP4K4 (h)): > 120 nM
- IC50 (TNIK(h); [3]): 12 to 120 nM
- Human Liver Microsome (μM/min/mg) [1]: ++ (10-100 μM/min/mg as ++)
- IC50 [2]: 0.1 to 1 nM

Compound: CC(C)n1cnc(-c2ccc(F)cc2)c1-c1nc(C(=O)Nc2ccc(N(CCO)CCO)cc2)c[nH]1 [Compound 116, N-(4-(bis(2-hydroxyethyl)amino)phenyl)-5′-(4-fluorophenyl)-3′-isopropyl-1H,3′H-[2,4′-biimidazole]-4-carboxamide]
- IC50 (MAP4K4 (h)): 12 to 120 nM
- IC50 (TNIK(h); [3]): 12 to 120 nM
- Human Liver Microsome (μM/min/mg) [1]: +++ (1-10 μM/min/mg as +++)
- IC50 [2]: 0.1 to 1 nM

Compound: CC(C)n1cnc(-c2ccc(F)cc2)c1-c1nc(C(=O)Nc2ccc(N3CCN(CCO)CC3)cc2)c[nH]1 [Compound 117, 5′-(4-fluorophenyl)-N-(4-(4-(2-hydroxyethyl)piperazin-1-yl)phenyl)-3′-isopropyl-1H,3′H-[2,4′-biimidazole]-4-carboxamide]
- IC50 (MAP4K4 (h)): 12 to 120 nM
- IC50 (TNIK(h); [3]): 12 to 120 nM
- Human Liver Microsome (μM/min/mg) [1]: ++ (10-100 μM/min/mg as ++)
- IC50 [2]: 0.1 to 1 nM

Compound: CN1CCN(c2ccc(NC(=O)c3c[nH]c(-c4c(-c5ccc(F)cc5)ncn4CC(F)(F)F)n3)cc2)CC1 [Compound 120, 5′-(4-fluorophenyl)-N-(4-(4-methylpiperazin-1-yl)phenyl)-3′-(2,2,2-trifluoroethyl)-1H,3′H-[2,4′-biimidazole]-4-carboxamide]
- IC50 (MAP4K4 (h)): > 120 nM
- IC50 (TNIK(h); [3]): 12 to 120 nM
- Human Liver Microsome (μM/min/mg) [1]: ++ (10-100 μM/min/mg as ++)
- IC50 [2]: < 0.1 nM

Compound: CC(C)n1cnc(-c2ccc(F)cc2)c1-c1ccc(C(=O)Nc2ccc(N3CCN(C)CC3)cc2)o1 [Compound 121, 5-(4-(4-fluorophenyl)-1-isopropyl-1H-imidazol-5-yl)-N-(4-(4-methylpiperazin-1-yl)phenyl)furan-2-carboxamide]
- IC50 (MAP4K4 (h)): 12 to 120 nM
- IC50 (TNIK(h); [3]): 1 to 12 nM
- Human Liver Microsome (μM/min/mg) [1]: + (>100 μM/min/mg as +)
- IC50 [2]: < 0.1 nM

Compound: CC(C)n1cnc(-c2ccc(F)cc2)c1-c1ccc(C(=O)Nc2ccc(CCO)cc2)o1 [Compound 126, 5-(4-(4-fluorophenyl)-1-isopropyl-1H-imidazol-5-yl)-N-(4-(2-hydroxyethyl)phenyl)furan-2-carboxamide]
- IC50 (MAP4K4 (h)): 12 to 120 nM
- IC50 (TNIK(h); [3]): 12 to 120 nM
- Human Liver Microsome (μM/min/mg) [1]: + (>100 μM/min/mg as +)
- IC50 [2]: 0.1 to 1 nM

Compound: CC(C)n1cnc(-c2ccc(F)cc2)c1-c1cccc(C(=O)Nc2ccc(N3CCN(C)CC3)cc2)n1 [Compound 127]
- IC50 (MAP4K4 (h)): 1 to 12 nM
- IC50 (TNIK(h); [3]): 1 to 12 nM
- Human Liver Microsome (μM/min/mg) [1]: + (>100 μM/min/mg as +)
- IC50 [2]: 0.1 to 1 nM

Compound: CC(C)n1cnc(-c2ccc(F)cc2)c1-c1cccc(C(=O)Nc2ccc(N3CCN(CCO)CC3)cc2)n1 [Compound 128]
- IC50 (MAP4K4 (h)): 1 to 12 nM
- IC50 (TNIK(h); [3]): 1 to 12 nM
- Human Liver Microsome (μM/min/mg) [1]: + (>100 μM/min/mg as +)
- IC50 [2]: 0.1 to 1 nM

Compound: CN1CCN(c2ccc(NC(=O)c3c[nH]c(-c4c(-c5ccc(F)cc5)ncn4C(F)F)n3)cc2)CC1 [Compound 130, 3′-(difluoromethyl)-5′-(4-fluorophenyl)-N-(4-(4-methylpiperazin-1-yl)phenyl)-1H,3′H-[2,4′-biimidazole]-4-carboxamide]
- IC50 (MAP4K4 (h)): > 120 nM
- IC50 (TNIK(h); [3]): 12 to 120 nM
- Human Liver Microsome (μM/min/mg) [1]: ++ (10-100 μM/min/mg as ++)
- IC50 [2]: 0.1 to 1 nM

Compound: CC(C)n1cnc(-c2ccc(F)cc2)c1-c1cccc(C(=O)Nc2ccc(CCC(=O)O)cc2)n1 [Compound 131]
- IC50 (MAP4K4 (h)): 12 to 120 nM
- IC50 (TNIK(h); [3]): 1 to 12 nM
- Human Liver Microsome (μM/min/mg) [1]: +++ (1-10 μM/min/mg as +++)
- IC50 [2]: 0.1 to 1 nM

Compound: CC(C)n1cnc(-c2ccc(Cl)cc2)c1-c1nc(C(=O)Nc2ccc(N3CCN(CCO)CC3)cc2)c[nH]1 [Compound 139, 5′-(4-chlorophenyl)-N-(4-(4-(2-hydroxyethyl)piperazin-1-yl)phenyl)-3′-isopropyl-1H,3′H-[2,4′-biimidazole]-4-carboxamide]
- IC50 (MAP4K4 (h)): > 120 nM
- IC50 (TNIK(h); [3]): 12 to 120 nM
- Human Liver Microsome (μM/min/mg) [1]: ++ (10-100 μM/min/mg as ++)
- IC50 [2]: 0.1 to 1 nM

Compound: CC(C)n1cnc(-c2ccc(F)c(F)c2)c1-c1nc(C(=O)Nc2ccc(N3CCN(CCO)CC3)cc2)c[nH]1 [Compound 146, 5′-(3,4-difluorophenyl)-N-(4-(4-(2-hydroxyethyl)piperazin-1-yl)phenyl)-3′-isopropyl-1H,3′H-[2,4′-biimidazole]-4-carboxamide]
- IC50 (MAP4K4 (h)): > 120 nM
- IC50 (TNIK(h); [3]): 12 to 120 nM
- Human Liver Microsome (μM/min/mg) [1]: ++ (10-100 μM/min/mg as ++)
- IC50 [2]: 0.1 to 1 nM

Compound: CC(C)n1cnc(-c2ccc(F)c(F)c2)c1-c1nc(C(=O)Nc2ccc(N3CCN(C)CC3)cc2)c[nH]1 [Compound 156, 5′-(3,4-difluorophenyl)-3′-isopropyl-N-(4-(4-methylpiperazin-1-yl)phenyl)-1H,3′H-[2,4′-biimidazole]-4-carboxamide]
- IC50 (MAP4K4 (h)): > 120 nM
- IC50 (TNIK(h)): 12 to 120 nM
- Human Liver Microsome (μM/min/mg) [1]: ++ (10-100 μM/min/mg as ++)
- IC50 [2]: < 0.1 nM

Compound: CN1CCN(c2ccc(NC(=O)c3c[nH]c(-c4c(-c5ccc(F)cc5)ncn4[C@H]4CC[C@H](O)CC4)n3)cc2)CC1 [Compound 159, 5′-(4-fluorophenyl)-3′-((1r,4r)-4-hydroxycyclohexyl)-N-(4-(4-methylpiperazin-1-yl)phenyl)-1H,3′H-[2,4′-biimidazole]-4-carboxamide]
- IC50 (MAP4K4 (h)): 12 to 120 nM
- IC50 (TNIK(h); [3]): 1 to 12 nM
- Human Liver Microsome (μM/min/mg) [1]: ++ (10-100 μM/min/mg as ++)
- IC50 [2]: 0.1 to 1 nM

Compound: O=C(Nc1ccc(N2CCNCC2)cc1)c1c[nH]c(-c2c(-c3ccc(F)cc3)ncn2CC(F)(F)F)n1 [Compound 167, 5′-(4-fluorophenyl)-N-(4-(piperazin-1-yl)phenyl)-3′-(2,2,2-trifluoroethyl)-1H,3′H-[2,4′-biimidazole]-4-carboxamide]
- IC50 (MAP4K4 (h)): > 120 nM
- IC50 (TNIK(h); [3]): 12 to 120 nM
- Human Liver Microsome (μM/min/mg) [1]: ++ (10-100 μM/min/mg as ++)
- IC50 [2]: < 0.1 nM

Compound: CN1CCN(c2ccc(NC(=O)c3c[nH]c(-c4c(-c5ccc(F)cc5)ncn4C4CCC(O)CC4)n3)cc2)CC1 (centres unmarked) [Compound 172]
- Human Liver Microsome (μM/min/mg) [1]: +++ (1-10 μM/min/mg as +++)
- IC50 [2]: < 0.1 nM

Compound: CC1CN(c2ccc(NC(=O)c3c[nH]c(-c4c(-c5ccc(F)cc5)ncn4C(C)C)n3)cc2)CC(C)N1C (centres unmarked) [Compound 196, 5′-(4-fluorophenyl)-3′-isopropyl-N-(4-(3,4,5-trimethylpiperazin-1-yl)phenyl)-1H,3′H-[2,4′-biimidazole]-4-carboxamide]
- IC50 (MAP4K4 (h)): 12 to 120 nM
- IC50 (TNIK(h); [3]): 12 to 120 nM
- IC50 [2]: < 0.1 nM

Source: patent publication US11530197B2, “Analogs for the treatment of disease” (Insilico Medicine IP Limited, priority 2021, dated 2022)
